According to the SangsterLogP compilation:

In order of rising logP:
1. Clc1ccccc1Oc1ccccc1  4.45
2. Clc1cccc(Cl)c1Oc1ccccc1  4.64
3. Clc1ccc(Oc2ccccc2)cc1  4.7
4. Clc1cccc(Oc2ccccc2)c1  4.75
5. Clc1ccc(Oc2ccccc2)c(Cl)c1  4.93
6. Clc1ccc(Oc2ccccc2Cl)c(Cl)c1  4.96
7. Clc1ccc(Oc2ccccc2)cc1Cl  4.99
8. Clc1cccc(Oc2ccccc2)c1Cl  5
9. Clc1ccc(Oc2ccccc2Cl)cc1  5.03
10. Clc1ccc(Oc2cccc(Cl)c2)cc1  5.13
11. Clc1ccc(Cl)c(Oc2ccccc2)c1  5.13
12. Clc1cc(Cl)cc(Oc2ccccc2)c1  5.21
13. Clc1ccc(Oc2ccc(Cl)cc2)cc1  5.25
14. Clc1ccc(Oc2c(Cl)cccc2Cl)cc1  5.3
15. Clc1cc(Cl)c(Oc2ccccc2)c(Cl)c1  5.32
16. Clc1ccc(Cl)c(Oc2ccccc2)c1Cl  5.35
17. Clc1ccc(Oc2ccccc2Cl)cc1Cl  5.5
18. Clc1ccc(Oc2ccc(Cl)cc2Cl)cc1  5.53
19. Clc1ccc(Oc2ccccc2)c(Cl)c1Cl  5.55
20. Clc1cc(Cl)c(Cl)c(Oc2ccccc2)c1  5.62
21. Clc1ccc(Oc2cccc(Cl)c2Cl)cc1  5.63
22. Clc1cccc(Oc2ccc(Cl)cc2Cl)c1  5.65
23. Clc1ccc(Oc2cc(Cl)ccc2Cl)cc1  5.66
24. Clc1cc(Oc2ccccc2)cc(Cl)c1Cl  5.7
25. Clc1ccc(Oc2c(Cl)cccc2Cl)cc1Cl  5.7
26. Clc1ccccc1Oc1ccc(Cl)c(Cl)c1Cl  5.72
27. Clc1cccc(Oc2ccc(Cl)c(Cl)c2)c1  5.74
28. Clc1ccc(Oc2cc(Cl)cc(Cl)c2)cc1  5.77
29. Clc1ccc(Oc2cc(Cl)ccc2Cl)c(Cl)c1  5.78
30. Clc1cc(Cl)c(Cl)c(Oc2ccccc2)c1Cl  5.82
31. Clc1ccc(Oc2c(Cl)ccc(Cl)c2Cl)cc1  5.88
32. Clc1ccc(Oc2ccc(Cl)c(Cl)c2)cc1  5.88
33. Clc1ccc(Oc2cccc(Cl)c2Cl)c(Cl)c1  5.88
34. Clc1ccc(Oc2c(Cl)cc(Cl)cc2Cl)cc1  5.92
35. Clc1ccc(Oc2ccc(Cl)cc2Cl)c(Cl)c1  5.95
36. Clc1cc(Cl)c(Oc2ccccc2Cl)cc1Cl  5.97
37. Clc1cc(Cl)c(Oc2c(Cl)cccc2Cl)cc1Cl  5.98
38. Clc1ccc(Oc2cc(Cl)c(Cl)cc2Cl)cc1  5.99
39. Clc1ccc(Oc2cccc(Cl)c2Cl)cc1Cl  5.99
40. Clc1ccc(Oc2c(Cl)ccc(Cl)c2Cl)c(Cl)c1  6.06
41. Clc1cccc(Oc2ccc(Cl)c(Cl)c2Cl)c1  6.07
42. Clc1ccc(Oc2c(Cl)cc(Cl)cc2Cl)c(Cl)c1  6.11
43. Clc1ccc(Oc2c(Cl)cccc2Cl)c(Cl)c1Cl  6.11
44. Clc1ccc(Cl)c(Oc2ccc(Cl)c(Cl)c2)c1  6.11
45. Clc1cc(Cl)cc(Oc2ccc(Cl)cc2Cl)c1  6.13
46. Clc1ccc(Oc2ccc(Cl)c(Cl)c2)c(Cl)c1  6.13
47. Clc1ccc(Oc2ccc(Cl)c(Cl)c2Cl)cc1  6.14
48. Clc1cccc(Oc2cc(Cl)c(Cl)cc2Cl)c1  6.14
49. Clc1ccc(Oc2cc(Cl)cc(Cl)c2Cl)cc1  6.21
50. Clc1cc(Cl)cc(Oc2ccc(Cl)c(Cl)c2)c1  6.22
51. Clc1ccc(Cl)c(Oc2cc(Cl)c(Cl)cc2Cl)c1  6.22
52. Clc1cc(Cl)c(Oc2cccc(Cl)c2Cl)cc1Cl  6.22
53. Clc1ccc(Oc2ccc(Cl)c(Cl)c2Cl)c(Cl)c1  6.28
54. Clc1ccc(Oc2cc(Cl)c(Cl)c(Cl)c2)cc1  6.3
55. Clc1cccc(Oc2ccc(Cl)c(Cl)c2Cl)c1Cl  6.3
56. Clc1ccc(Oc2c(Cl)ccc(Cl)c2Cl)cc1Cl  6.31
57. Clc1ccc(Oc2ccc(Cl)c(Cl)c2)cc1Cl  6.36
58. Clc1ccc(Oc2cc(Cl)c(Cl)cc2Cl)c(Cl)c1  6.38
59. Clc1ccc(Oc2c(Cl)c(Cl)cc(Cl)c2Cl)cc1  6.41
60. Clc1cc(Cl)c(Oc2ccc(Cl)c(Cl)c2)c(Cl)c1  6.44
61. Clc1ccc(Oc2c(Cl)cc(Cl)c(Cl)c2Cl)cc1  6.47
62. Clc1cc(Cl)c(Oc2c(Cl)ccc(Cl)c2Cl)cc1Cl  6.47
63. Clc1cc(Cl)c(Oc2cc(Cl)c(Cl)cc2Cl)c(Cl)c1  6.49
64. Clc1ccc(Oc2ccc(Cl)c(Cl)c2Cl)cc1Cl  6.51
65. Clc1ccc(Cl)c(Oc2ccc(Cl)c(Cl)c2Cl)c1  6.51
66. Clc1cc(Cl)c(Cl)c(Oc2ccc(Cl)c(Cl)c2)c1  6.52
67. Clc1cc(Cl)cc(Oc2ccc(Cl)c(Cl)c2Cl)c1  6.58
68. Clc1ccc(Oc2cc(Cl)c(Cl)cc2Cl)cc1Cl  6.6
69. Clc1ccc(Oc2cc(Cl)c(Cl)c(Cl)c2Cl)cc1  6.61
70. Clc1ccc(Oc2cc(Cl)c(Cl)c(Cl)c2)c(Cl)c1  6.63
71. Clc1ccc(Oc2c(Cl)ccc(Cl)c2Cl)c(Cl)c1Cl  6.65
72. Clc1cc(Cl)cc(Oc2cc(Cl)c(Cl)cc2Cl)c1  6.66
73. Clc1ccc(Oc2cc(Cl)c(Cl)c(Cl)c2Cl)c(Cl)c1  6.72
74. Clc1cc(Cl)c(Oc2cc(Cl)c(Cl)cc2Cl)cc1Cl  6.72
75. Clc1cc(Cl)c(Cl)c(Oc2cc(Cl)c(Cl)cc2Cl)c1  6.76
76. Clc1ccc(Oc2c(Cl)c(Cl)cc(Cl)c2Cl)c(Cl)c1  6.76
77. Clc1ccc(Oc2c(Cl)c(Cl)cc(Cl)c2Cl)cc1Cl  6.78
78. Clc1ccc(Oc2ccc(Cl)c(Cl)c2Cl)c(Cl)c1Cl  6.82
79. Clc1ccc(Oc2cc(Cl)c(Cl)c(Cl)c2)cc1Cl  6.83
80. Clc1ccc(Oc2c(Cl)cc(Cl)c(Cl)c2Cl)c(Cl)c1  6.84
81. Clc1ccc(Oc2c(Cl)c(Cl)c(Cl)c(Cl)c2Cl)cc1  6.95
82. Clc1cc(Oc2c(Cl)ccc(Cl)c2Cl)c(Cl)c(Cl)c1Cl  6.98
83. Clc1cc(Oc2ccc(Cl)c(Cl)c2Cl)cc(Cl)c1Cl  6.99
84. Clc1cc(Cl)c(Cl)c(Oc2ccc(Cl)c(Cl)c2Cl)c1  7.01
85. Clc1cc(Cl)c(Oc2ccc(Cl)c(Cl)c2Cl)cc1Cl  7.01
86. Clc1ccc(Oc2c(Cl)cc(Cl)c(Cl)c2Cl)cc1Cl  7.07
87. Clc1cc(Cl)c(Oc2cc(Cl)c(Cl)c(Cl)c2)cc1Cl  7.11
88. Clc1cc(Cl)c(Oc2c(Cl)c(Cl)cc(Cl)c2Cl)cc1Cl  7.13
89. Clc1ccc(Oc2c(Cl)c(Cl)cc(Cl)c2Cl)c(Cl)c1Cl  7.14
90. Clc1ccc(Oc2cc(Cl)c(Cl)c(Cl)c2Cl)c(Cl)c1Cl  7.28
91. Clc1cc(Cl)c(Oc2cc(Cl)c(Cl)c(Cl)c2Cl)c(Cl)c1  7.31
92. Clc1ccc(Oc2c(Cl)c(Cl)c(Cl)c(Cl)c2Cl)cc1Cl  7.31
93. Clc1cc(Cl)c(Oc2cc(Cl)c(Cl)c(Cl)c2Cl)cc1Cl  7.46
94. Clc1cc(Oc2cc(Cl)c(Cl)c(Cl)c2Cl)cc(Cl)c1Cl  7.55
95. Clc1cc(Oc2c(Cl)c(Cl)cc(Cl)c2Cl)c(Cl)c(Cl)c1Cl  7.63
96. Clc1cc(Oc2cc(Cl)c(Cl)c(Cl)c2Cl)c(Cl)c(Cl)c1Cl  7.78
97. Clc1cc(Cl)c(Oc2c(Cl)c(Cl)c(Cl)c(Cl)c2Cl)cc1Cl  7.81
98. Clc1ccc(Oc2c(Cl)c(Cl)c(Cl)c(Cl)c2Cl)c(Cl)c1Cl  7.84
99. Clc1cc(Oc2c(Cl)c(Cl)c(Cl)c(Cl)c2Cl)c(Cl)c(Cl)c1Cl  8.07
100. Clc1c(Cl)c(Cl)c(Oc2c(Cl)c(Cl)c(Cl)c(Cl)c2Cl)c(Cl)c1Cl  8.16
